Data taken from ChEMBL document CHEMBL1201862, “PubChem BioAssay data set” (2004).
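Five compound concentrations were applied to cells in 96-well plates for 48 hours; endpoints were derived by simple linear interpolation of the resulting dose-response curve. GI50: concentration for 50% inhibition of growth.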 Calls of active or inactive are those of the source. No stated cut-off is given here; in the data, active = GI50 up to about 1.1 µM and inactive = higher.

Experiments:
Assay in all cases: inhibition of tumour cell growth, NCI panel, 48 h
[1] = test system: CCRF-CEM
[2] = test system: HCT-116
[3] = test system: HCT-15
[4] = test system: HL-60
[5] = test system: HOP-62
[6] = test system: IGROV-1
[7] = test system: NCI-H226
[8] = test system: OVCAR-3
[9] = test system: OVCAR-4
[10] = test system: OVCAR-8
[11] = test system: RXF 393
[12] = test system: SF-268
[13] = test system: SF-295
[14] = test system: SF-539
[15] = test system: SK-MEL-2
[16] = test system: T47D
[17] = test system: TK-10
[18] = test system: MDA-N
[19] = test system: Malme-3M

Measured: GI50

N#Cc1c(=O)c2ccccc2n2c1[nH]c1ccccc12
17.6 µM: [3]
inactive: [1] 17.8 µM | [2] 30.5 µM | [4] 18.7 µM | [5] > 100 µM | [6] 16.1 µM | [7] 34.9 µM | [8] 38.6 µM | [9] 24.1 µM | [10] 27.6 µM | [11] 4.44 µM | [12] 31.5 µM | [13] 32.8 µM | [14] 32.1 µM | [15] 47.3 µM | [16] 22.7 µM | [17] 49.5 µM

O=C(CN1CCCC1)Nc1ccc2sc3ccccc3c(=O)c2n1
23.2 µM: [3]
inactive: [1] 10.5 µM | [2] 13.9 µM | [4] > 10 µM | [5] 16.9 µM | [6] 23.2 µM | [18] 20.8 µM | [8] 42.9 µM | [9] 34.6 µM | [10] 16.8 µM | [12] 24.7 µM | [13] 22.6 µM | [14] 17.1 µM | [15] 21.1 µM | [16] 30.1 µM | [17] 33 µM

CCCCCCNCCc1c[nH]cn1
inactive: [1] > 100 µM | [2] > 100 µM | [5] > 100 µM | [6] > 100 µM | [19] > 100 µM | [7] > 100 µM | [8] > 100 µM | [9] > 100 µM | [10] > 100 µM | [11] > 100 µM | [12] > 100 µM | [13] > 100 µM | [14] > 100 µM | [15] > 100 µM | [16] > 100 µM
> 100 µM: [3]

CC(=O)Nc1ccccc1NC1CC(C)N(c2ccccc2)N1C(C)=O (configuration not stated)
inactive: [1] > 10 µM | [4] > 10 µM | [5] > 10 µM | [6] > 10 µM | [18] > 10 µM | [19] > 10 µM | [9] > 10 µM | [10] > 10 µM | [11] > 10 µM | [12] > 10 µM | [13] > 10 µM | [16] > 10 µM | [17] > 10 µM
> 10 µM: [3]

CC(=O)NC1C(OCc2ccccc2)OC(CO)C(O)C1OCC(=O)NC(C)C(=O)NC(CCC(=O)NCCCCNc1ccc([N+](=O)[O-])c2[nH]c3ccccc3c(=O)c12)C(N)=O (configuration not stated)
65 µM: [3]
inactive: [2] 63.7 µM | [4] > 100 µM | [5] > 100 µM | [6] 56 µM | [18] > 100 µM | [19] > 100 µM | [7] 66.1 µM | [8] > 100 µM | [9] 40.5 µM | [10] > 100 µM | [12] 38.8 µM | [13] 34.6 µM | [14] 49.3 µM | [15] > 100 µM | [16] > 100 µM | [17] 92.9 µM

Nc1c(F)c(F)c2c(c1F)N(CCCCCl)c1ccccc1S2
> 100 µM: [3]
inactive: [1] > 100 µM | [2] > 100 µM | [4] > 100 µM | [5] > 100 µM | [6] > 100 µM | [19] > 100 µM | [7] > 100 µM | [8] > 100 µM | [9] > 100 µM | [11] > 100 µM | [12] > 100 µM | [13] > 100 µM | [14] > 100 µM | [15] > 100 µM | [16] > 100 µM | [17] > 100 µM

Cc1cn([C@H]2C=C[C@@H](CO)O2)c(=O)[nH]c1=O [STAVUDINE]
> 1000 µM: [3]
inactive: [1] 469 µM | [2] > 1000 µM | [4] 348 µM | [5] > 1000 µM | [6] > 1000 µM | [18] > 1000 µM | [19] 361 µM | [7] > 1000 µM | [8] > 1000 µM | [9] > 1000 µM | [10] > 1000 µM | [12] > 1000 µM | [13] > 1000 µM | [14] 881 µM | [15] > 1000 µM | [16] 473 µM | [17] 583 µM

N#Cc1c(N2CCOCC2)[nH]c(=O)c(C(c2c(Cl)cccc2Cl)c2c(O)c(C#N)c(N3CCOCC3)[nH]c2=O)c1O
inactive: [1] 15.1 µM | [2] 28.3 µM | [4] 12.9 µM | [5] 22.1 µM | [6] 18.1 µM | [19] 12.9 µM | [7] 23 µM | [8] 16.4 µM | [9] 17.7 µM | [10] 18.6 µM | [11] 14.1 µM | [12] 19.5 µM | [13] 30.5 µM | [14] 19.1 µM | [15] 17.6 µM | [17] 17.5 µM
15 µM: [3]

CC(=O)N(C)c1cc(NCc2ccccc2)ccc1OCc1ccccc1
inactive: [1] 23.6 µM | [2] 31.8 µM | [4] 26 µM | [5] 33 µM | [6] 16.4 µM | [19] 16.1 µM | [7] 18.4 µM | [8] 16.6 µM | [9] 18.7 µM | [10] 17.3 µM | [11] 14.8 µM | [12] 14.7 µM | [13] 15.4 µM | [14] 17.3 µM | [15] 16.9 µM | [16] 36.6 µM | [17] 17.7 µM
19.1 µM: [3]

CN(Cc1cnc2nc(N)nc(N)c2n1)c1ccc(C(=O)NCS(=O)(=O)O)cc1
> 100 µM: [3]
inactive: [2] 43.3 µM | [5] > 100 µM | [6] > 100 µM | [18] 63.1 µM | [19] > 100 µM | [7] > 100 µM | [8] > 100 µM | [9] > 100 µM | [10] > 100 µM | [12] 33.3 µM | [13] > 100 µM | [14] 85.7 µM | [15] > 100 µM | [16] > 100 µM | [17] > 100 µM

Cc1ccc(N(C(=O)Nc2ccccc2)C2=NCC(C)S2)cc1C (configuration not stated)
inactive: [1] 19.6 µM | [2] 16.4 µM | [4] 20.1 µM | [5] 53.3 µM | [6] 22.4 µM | [18] 17.6 µM | [19] 20.3 µM | [8] 17.3 µM | [9] 28.9 µM | [10] 29.2 µM | [12] 24 µM | [13] 24.4 µM | [14] 20.4 µM | [15] 17.4 µM | [16] 14.8 µM | [17] 21 µM
15.4 µM: [3]

COc1cc2nc(-c3cccs3)nc(N3CCN(c4ccccc4C(F)(F)F)CC3)c2cc1OC
> 100 µM: [3]
inactive: [1] 7.23 µM | [2] > 100 µM | [4] 3.87 µM | [5] > 100 µM | [6] 25.9 µM | [19] > 100 µM | [7] > 100 µM | [8] 21.5 µM | [9] > 100 µM | [10] 93.3 µM | [12] 60.3 µM | [13] 51.2 µM | [14] 55.6 µM | [15] > 100 µM | [16] > 100 µM | [17] 45 µM

O=c1c(Sc2c(SCSc3cnc4ccccc4c3Sc3c[nH]c4ccccc4c3=O)cnc3ccccc23)c[nH]c2ccccc12
96.8 µM: [3]
active: [4] 0.54 µM
inactive: [1] 12.7 µM | [2] > 100 µM | [5] 94.2 µM | [6] 88.9 µM | [18] > 100 µM | [8] > 100 µM | [9] 96.6 µM | [10] > 100 µM | [12] 92.3 µM | [13] > 100 µM | [14] > 100 µM | [15] > 10 µM | [16] > 100 µM | [17] > 100 µM

O=C1CSC(=S)N1 [RHODANINE]
> 100 µM: [3]
inactive: [1] > 100 µM | [2] > 100 µM | [4] > 100 µM | [5] > 100 µM | [6] > 100 µM | [18] > 100 µM | [19] > 100 µM | [7] > 100 µM | [8] > 100 µM | [10] > 100 µM | [12] > 100 µM | [13] > 100 µM | [14] > 100 µM | [15] > 100 µM | [16] > 100 µM | [17] > 100 µM

O=C(O)c1ccc2c(c1)C(=O)N(c1ccc(S(=O)(=O)c3ccc(N4C(=O)c5ccc(C(=O)O)cc5C4=O)cc3)cc1)C2=O
inactive: [1] > 100 µM | [2] > 100 µM | [4] > 100 µM | [5] > 100 µM | [19] > 100 µM | [7] > 100 µM | [8] > 100 µM | [9] > 100 µM | [10] > 100 µM | [11] > 100 µM | [12] > 100 µM | [13] > 100 µM | [14] > 100 µM | [15] > 100 µM | [17] > 100 µM
> 100 µM: [3]

COC(=O)CCC(=O)C(CC(=O)OC)C(=O)CCC(=O)NCCc1ccccc1 (configuration not stated)
inactive: [1] > 100 µM | [2] > 100 µM | [4] > 100 µM | [5] > 100 µM | [6] > 100 µM | [19] > 100 µM | [7] > 100 µM | [8] > 100 µM | [9] > 100 µM | [10] > 100 µM | [11] > 100 µM | [12] > 100 µM | [13] > 100 µM | [14] > 100 µM | [15] > 100 µM | [17] > 100 µM
> 100 µM: [3]

O/N=C1\SC(=N\O)/C(=N/O)S\C1=N/O
inactive: [1] > 100 µM | [2] 68.4 µM | [4] 21 µM | [5] > 100 µM | [6] > 100 µM | [18] 73.8 µM | [19] > 100 µM | [7] > 100 µM | [8] > 100 µM | [9] > 100 µM | [10] > 100 µM | [11] > 100 µM | [13] > 100 µM | [14] > 100 µM | [15] > 100 µM
> 100 µM: [3]
